Test results published in patent US10538485B2, “Compounds for use as therapeutic agents affecting P53 expression and/or activity” (ABIVAX, priority 2011, dated 2020).

Tests used:
Assay type in all cases: cell-based
[1] = test system: p53 isoforms produced by alternative splicing (wild-type p53 MCF7 cells); test: p53 isoforms (α, β, γ) expression at mRNA level in MCF7 cells; conditions: 5 μM, 48 hours, RT-qPCR
Procedure: (§1) Two breast cancer cell lines have been treated with 5 μM of drugs for 48 hours: wild-type p53 MCF7 cells and mutant p53 (R280K) MDA-MB-231-Luc-D3H2N provided by Caliper Life Science (parental Line source: American Type Culture collection). The MDA-MB-231-Luc-D3H2N cells were maintained in two different media during treatment: a DMEM supplemented with 10% foetal calf serum (FCS) and a FCS-free medium for 24 hours followed by 24 hours in a complete medium. The MC7 cells were maintained in a DMEM/FCS 10% medium.
(§2) Cells were harvested after 48 hours of treatment. Total RNAs (RNeasy Mini-Kit, Qiagen) and proteins (NuPage LDS 1×, Invitrogen) were extracted to analyse mRNA expression by nested RT-PCR or RT-qPCR and protein expression by Western Blot.
(§3) Expression of p53 isoforms produced by alternative splicing (α, β and γ) was analysed at mRNA levels by RT-qPCR using primers/probe specific of each C-terminal variants. The α-forms are the most abundant forms. In the low abundant forms, β-forms are more expressed than γ-forms.
(§4) A semi-quantitative RT-PCR method requiring high quality total RNA 28S/18S ratio (>1.5). After reverse-transcription of 500 ng of total RNA using random primers, actin cDNA was amplified by PCR to confirm reverse-transcription efficiency. 0.5 μg of total RNA from each tumour sample was reverse-transcribed (AMV RT, 45C, random primer) and cDNA quality confirmed by amplification of actin by PCR in 30 cycles. p53 isoform cDNA was amplified by 2 nested PCR of 30 cycles using primers specific of each isoforms as described by Bourdon et al. (Genes Dev., 2005, 19: 2122). Tumours were considered to express each p53 isoform after sequencing of the corresponding PCR fragment.

[2] = test system: p53 (wild-type p53 MCF7 cells); test: p53 and Δ133p53 mRNA level by RT-qPCR in MCF7 cells; conditions: 5 μM, 48 hours, vs DMSO
Procedure: (§5) The compounds of the invention have been tested according to the following pharmacological test and the three compounds have been more particularly tested: (40), (1) and (45), all diluted in DMSO. Their effects were thus compared to cells treated with DMSO. A positive control was used, TG003, a benzothiazole compound known to alter splicing through the inhibition of Clk/Sty family activity (Sigma, ref: T5575).
as §1, §2
(§6) Analysis of p53 expression was assessed both at mRNA (full-length and truncated, Δ133p53 isoforms) and protein (full-length) levels by RT-qPCR and Western Blot, respectively.
as §4, with “The p53 isoform cDNA being too long to be specifically quantified by RT-qPCR, a semi-quantitative” for “A semi-quantitative”, “method was therefore used,” for “method”, “RT, 45 C,” for “RT, 45C,”, “described in” for “described by”

[3] = test system: p53 (mutant p53 (R280K) MDA-MB-231-Luc-D3H2N cells); test: p53 mRNA level by RT-qPCR in MDA-MB-231-Luc-D3H2N cells; conditions: 5 μM, 48 hours
Procedure: as §5, §1, §2, §6
as §4, with “The p53 isoform cDNA being too long to be specifically quantified by RT-qPCR, a semi-quantitative” for “A semi-quantitative”, “method was therefore used,” for “method”, “RT, 45 C,” for “RT, 45C,”, “described in” for “described by”

[4] = test system: p53 isoforms produced by alternative splicing (mutant p53 MDA-MB-231-Luc-D3H2N cells); test: p53 isoforms (α, β, γ) expression at mRNA level in MDA-MB-231-Luc-D3H2N cells; conditions: 5 μM, 48 hours
Procedure: as §1, §2, §3, §4

[5] = test system: p53-target genes Hdm2, Bcl-2, p21 (mutant p53 MDA-MB-231-Luc-D3H2N cells); test: p53 transcriptional activity: p53-target gene expression by Western-blot in MDA-MB-231-Luc-D3H2N cells; conditions: 5 μM, 48 hours
Procedure: as §5, §1, §2
Analysis of p53 transcriptional activity was assessed through analysis of p53-target gene expression by Western-blot. Four p53-target genes were studied: Hdm2, Bcl-2, p21 and Bax. Hdm2 is known to bind p53 and to negatively regulate p53 activity and stability. p21 is known to mediate p53 dependent cycle arrest. Bcl 2 is known to have an anti-proliferative effect and an apoptotic protective effect, while Bax is known to have a pro-apoptic effect. Bax was not detected in both MCF7 and MDA-MB-231-Luc-D3H2N cells, while p21 was not detected in MDA-MB-231-Luc-D3H2N cells maintained in FCS-free medium. The Western-blot was performed as above described using the antibodies described in Bourdon et al., Genes Dev., 2005, 19: 2122.

[6] = test system: p53 (mutant p53 (R280K) MDA-MB-231-Luc-D3H2N cells); test: p53 protein expression by Western Blot (4 antibodies) in MDA-MB-231-Luc-D3H2N cells; conditions: 5 μM, 48 hours
Procedure: as §5, §1, §2
p53 protein expression was determined using a panel of 4 different antibodies, namely DO1, SAPLI, CMI and DO12 as described in Bourdon et al. (Genes Dev., 2005, 19: 2122), to avoid problem of detection due to post-translational modification.
The amount of total proteins in each extract was quantified using BCA kit (promega). 8% SDS-PAGE gels were used. Equal amount (30 μg) of proteins was loaded on each lane. Proteins were then transferred electrophoretically on nitrocellulose membrane. Membranes were blocked in TBS/0.1% Tween 20 containing 3% milk for one hour and then incubated overnight with the primary antibodies diluted in TBS/0.1% Tween 20 containing 3% milk. After several washes in TBS/Tween, membranes were incubated with anti-rabbit Ig antibodies linked to HRP. Membranes were developed with ECL according to the manufacturer's instructions.
Scanned autoradiographs were quantified using AIDA/2D densitometry software.

[7] = test system: MDA-MB231-luc-D3H2LN cells; test: Invasion of MDA-MB231-D3H2LN cells into collagen; conditions: MDA-MB-231, anti-invasive effect in MDA-MB231 breast cancer cells, concentration giving 0.5 fold the effect of 10 μM Y-27632 ref. compound, read-out: 0.5 fold effect compared to 10 μM Y-27632
From the text: 13.4 Effect of Drug Compounds on Invasion of MDA-MB231-D3H2LN Cells into Collagen
A key step in the generation of tumor metastasis is the invasion of tumor cells into the extracellular matrix, a major component of which is collagen. Therefore, the invasion of tumor cells into collagen in vitro may be indicative of the generation of metastasis in vivo. E. g., MDA-MB231-luc-D3H2LN […] breast cancer cells display indeed both higher invasion into collagen in vitro and a higher metastatic potential in vivo as compared to MDA-MB231 cells (from which they were derived). Using these MDA-MB231-luc-D3H2LN cells as a model, the aim of the experiment described here is to identify drug compounds that inhibit the invasion of tumor cells into collagen in vitro, therefore potentially inhibiting also the generation of tumor metastasis in vivo.
Step 1: Preparation of cells at the bottom of a collagen gel: Cells are suspended in a liquid collagen solution (4° C.), distributed into BSA-coated wells, and then collected at the bottom of the wells by centrifugation. The collagen is then solidified by incubation at 37° C. The BSA coating improves the adhesion of the collagen gel.
Step 2: Pre-treatment with the compounds to be tested: Concentrated drug solutions are then added on top of the collagen, and cells are pre-incubated for 24 h with the drugs at low serum conditions (0.025% FBS).
Step 3: Stimulation of invasion: Medium with 5% FBS is then added in order to stimulate invasion of the cells into the collagen gel.
Step 4: Fixation and staining: Following another 24 h incubation, cells are fixed and nuclei are stained.
Step 5: Analysis: Finally, plates are analyzed using an automated microscope. Fluorescent beads that have been included into the BSA coating serve to detect the bottom of the wells. Pictures of the stained nuclei are taken at the same level (0 μm) as well as 25 μm and 50 μm above.
Invasion assay: Negative control: No drug (just DMSO at equivalent concentration). Positive control: 10 μM Y-27632. To avoid edge effects, only the 60 central wells B2-G11 are used; lines A and H as well as columns 1 and 12 remain free. Each drug is tested at least in triplicate. The positive and negative controls should be tested in double triplicates at different positions on each plate. Typical plate map (−=negative control, +=positive control, 1-16=16 different drug compounds):
for each well, calculate the mean invasion distance of the counted cells: (25 μm×number of cells at 25 μm+50 μm×number cells at 50 μm)/sum of cells at 0, 25 and 50 μm
for all four parameters (number of cells at 0 μm, number of cells at 25 μm, number of cells at 50 μm, mean invasion distance of the counted cells), calculate means, SD and CV of the replicates (n=6 for the controls; n=3 for the samples)
invalidate any replicate with a CV≥50% (compound to be re-tested, or assay to be repeated if CV≥50% for the untreated negative control or the compound Y-27632-treated positive control). Y27632 is a selective inhibitor of the Rho-associated protein kinase p160ROCK of the following formula
validate the assay only if the mean invasion distance of the cells treated with 10 μM Y-27632 (positive control) is decreased by ≥40% as compared to the untreated negative control
Anti-invasive effect in MDA-MB231 breast cancer cells: 0.5 fold effect compared to 10 μM Y-27632 ref. compound.

[8] = mutant p53 MDA-MB-231-Luc-D3H2N cells in FCS-free medium
[9] = mutant p53 MDA-MB-231-Luc-D3H2N cells in normal medium
[10] = mutant p53 MDA-MB-231-Luc-D3H2N cells in FCS-free medium, RT-qPCR
[11] = mutant p53 MDA-MB-231-Luc-D3H2N cells in normal medium, RT-qPCR

SMILES: CC(C)CCNC(=O)c1cccc(Nc2cccc(/C=C/c3ccncc3)c2)c1 [Compound 1, (E)-N-(3-methylbutyl)-3-[3-(2-pyridin-4-ylvinyl)phenylamino]benzamide]
- expression of p53 β-forms (mRNA) [1]: tend to increase
- expression of p53 γ-forms (mRNA) [1]: tend to increase
- p53 α-form expression at mRNA levels [1]: did not change
- total p53 expression (total isoforms, TA) at mRNA levels [2]: did not change
- Δ133p53 mRNA level [2]: increased
- p53 expression at mRNA levels (total isoforms, TA): decreased or not [3, 8]: decreased
- p53 expression at mRNA levels (total isoforms, TA) [3, 9]: significant decrease
- expression of p53 γ-forms (mRNA) [4, 10]: no significant increase
- p53 α-form expression at mRNA levels [4, 10]: did not change
- p53 γ-forms expression by nested RT-PCR [4, 8]: restoration
- expression of p53 β-forms (mRNA) [4, 11]: tend to increase
- expression of p53 γ-forms (mRNA) [4, 11]: tend to increase
- p53 α-form expression at mRNA levels [4, 11]: did not change
- p53 γ-forms expression by nested RT-PCR [4, 9]: restoration
- expression of Hdm2 (p53-target gene) [5, 8]: slight decrease
- p53-target genes expression [5, 9]: did not affect
- p53 protein levels (full-length) [6, 8]: did not change
- p53 protein levels (full-length) [6, 9]: did not change

SMILES: CCN(CC)CCCNC(=O)c1ccc(Nc2cccc(/C=C/c3ccncc3)c2)c(C)c1 [Compound 6]
- IC (0.5-fold effect of 10 uM Y-27632) [7]: 0.7 ± 0.1 µM

SMILES: NC(=O)c1cccc(Nc2cccc(/C=C/c3ccncc3)c2)c1 [Compound 9, 3-[3-(2-pyridin-4-ylvinyl)phenylamino]benzamide]
- IC (0.5-fold effect of 10 uM Y-27632) [7]: 1.1 ± 0.4 µM

SMILES: O=S(=O)(NCCCN1CCOCC1)c1cccc(Nc2cccc(/C=C/c3ccncc3)c2)c1 [Compound 16]
- IC (0.5-fold effect of 10 uM Y-27632) [7]: 0.75 ± 0.19 µM

SMILES: O=S(=O)(NCCCN1CCCCC1)c1cccc(Nc2cccc(/C=C/c3ccncc3)c2)c1 [Compound 17]
- IC (0.5-fold effect of 10 uM Y-27632) [7]: 0.83 ± 0.09 µM

SMILES: CCN(CC)CCCNS(=O)(=O)c1cccc(Nc2cccc(/C=C/c3ccncc3)c2)c1 [Compound 18, N-(3-diethylaminopropyl)-3-[3-(2-pyridin-4-ylvinyl)phenylamino]benzenesulfonamide]
- IC (0.5-fold effect of 10 uM Y-27632) [7]: 0.55 ± 0.05 µM

SMILES: O=C(NCCCN1CCCCC1)c1cccc(Nc2cccc(/C=C/c3ccncc3)c2)c1 [Compound 19]
- IC (0.5-fold effect of 10 uM Y-27632) [7]: 0.25 ± 0.05 µM

SMILES: CN1CCN(CCCNC(=O)c2cccc(Nc3cccc(/C=C/c4ccncc4)c3)c2)CC1 [Compound 21, (E)-[3-(4-methyl-piperazinyl)-propyl]-3-[3-(2-pyridin-4-ylvinyl)-phenylamino]-benzamide]
- IC (0.5-fold effect of 10 uM Y-27632) [7]: 0.17 ± 0.04 µM

SMILES: O=C(NCCCN1CCCC1)c1cccc(Nc2cccc(/C=C/c3ccncc3)c2)c1 [Compound 22]
- IC (0.5-fold effect of 10 uM Y-27632) [7]: 0.3 ± 0.05 µM

SMILES: O=S(=O)(NCCN1CCCCC1)c1cccc(Nc2cccc(/C=C/c3ccncc3)c2)c1 [Compound 24]
- IC (0.5-fold effect of 10 uM Y-27632) [7]: 0.64 ± 0.2 µM

SMILES: O=S(=O)(NCCN1CCCC1)c1cccc(Nc2cccc(/C=C/c3ccncc3)c2)c1 [Compound 25]
- IC (0.5-fold effect of 10 uM Y-27632) [7]: 0.5 ± 0.21 µM

SMILES: CCN(CC)CCCNC(=O)c1ccccc1Nc1cccc(OC(F)(F)F)c1 [Compound 49]
- IC (0.5-fold effect of 10 uM Y-27632) [7]: 0.13 ± 0.3 µM

SMILES: CCN(CC)CCCNC(=O)c1ccccc1Nc1ccc(OCc2ccccc2)cc1 [Compound 50]
- IC (0.5-fold effect of 10 uM Y-27632) [7]: 1 µM

SMILES: CCN(CC)CCCNC(=O)c1ccccc1Nc1cccc(/C=C/c2ccncc2)c1 [Compound 129]
- IC (0.5-fold effect of 10 uM Y-27632) [7]: 0.2 µM
